Laboratory results from patent US8293292B2, “Extract of Fraxinus excelsior seeds and therapeutic applications therefor” (Naturex, S.A., priority 2008, dated 2012).

Tests used:
PPAR-alpha = biological target: T1, PPAR-alpha (Homo sapiens, UniProt Q07869); experiment: PPAR-alpha activation in reporter cell lines; assay type: cell-based; conditions: concentration of 10^−4 M
T1 sequence (Q07869 1-468): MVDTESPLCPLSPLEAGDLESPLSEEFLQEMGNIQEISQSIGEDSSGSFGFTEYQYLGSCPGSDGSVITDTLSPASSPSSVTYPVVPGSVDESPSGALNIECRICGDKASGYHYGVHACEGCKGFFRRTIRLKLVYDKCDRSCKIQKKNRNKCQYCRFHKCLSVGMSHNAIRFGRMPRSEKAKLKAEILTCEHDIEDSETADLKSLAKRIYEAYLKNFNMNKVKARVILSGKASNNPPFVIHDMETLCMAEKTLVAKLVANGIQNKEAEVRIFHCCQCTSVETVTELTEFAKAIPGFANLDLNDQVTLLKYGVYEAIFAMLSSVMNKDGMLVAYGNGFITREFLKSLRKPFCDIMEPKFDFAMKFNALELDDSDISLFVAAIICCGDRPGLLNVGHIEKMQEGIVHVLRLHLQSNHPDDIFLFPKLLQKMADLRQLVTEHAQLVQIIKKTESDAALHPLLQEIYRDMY
Description: FIG. 6 illustrates relative PPARα activation potential (%) in reporter cell lines using concentrations ranging from 10^−5M-10^−9M for the selective synthetic PPARα activator WY14,643 as well as the isolated compounds at a concentration of 10^−4M and a 1:10 aqueous solution of FE seed extract, with compound label: FE19028 (Nuzhenide, 3), FE20015 (G13, 4), FE20031 (oleoside dimethyl ester, 6), FE21008 (excelside A, 1), and FE21023 (GI5, 5);
PPAR-alpha activity of excelside A (1), GI3 (4), and oleoside dimethyl ester (6). Five single compounds isolated from Fraxinus excelsior (FE) seed water extract were tested for PPAR-alpha activity. The synthetic and selective PPAR alpha activator WY14,643 served as positive control and DMSO which was used to dissolve these compounds as negative control in the assay.

3T3-L1 cells = experiment: adipogenesis inhibition, glucose uptake of MDI-induced 3T3-L1 preadipocytes; assay type: cell-based; conditions: 0.004%, 0.02%, 0.05%, 0.1%; glucose uptake ten days after differentiation induction
Description: Inhibitory effect of GI5 (5) and nuzhenide (3) on undifferentiated 3T3-L1 cells. The major component of weight gain is deposition of adipose tissue in body through the adipogenesis process. Adipogenesis is characterized by increase in the size and number of fat cells. The secoiridoids, GI5 and nuzhenide isolated from F. excelsior, have shown significant and mild adipogenesis inhibitory activity, respectively, by blocking the pathway from undifferentiated 3T3-L1 cell to differentiated adipocyte to achieve an effect on bodyweight control and body fat loss. 3T3-L1 preadipocytes were induced to differentiate with methylisobutylxanthine, dexamethasone, and insulin (MDI) hormonal cocktail in the presence or absence of compounds. Ten days after differentiation induction, the treated cells were assayed for their respective glucose uptake activity, which is an indirect measurement of differentiation (adipogenesis) because preadipocytes are incapable of insulin-induced, glucose transport-4 (GLUT4)-mediated glucose uptake while fully differentiate adipocytes are capable of this uptake. Compounds, GI5 and nuzhenide, were used at four different concentrations: 0.004%, 0.02%, 0.05%, and 0.1%. Untreated (undifferentiated) cells were used as a negative control while insulin was used as a positive control. Methanol (MeOH), the solvent of the compounds, was also used as a control.

Row | Compound | PPAR-alpha activity (PPAR-alpha) | adipogenesis inhibitory activity (3T3-L1 cells)
1 | C/C=C1/[C@H](O[C@@H]2O[C@H](CO[C@@H]3O[C@H](CO)[C@@H](O)[C@H](O)[C@H]3O)[C@@H](O)[C@H](O)[C@H]2O)OC=C(C(=O)OC)[C@H]1CC(=O)OC [excelside A, (2S,3E,4S) 2H-Pyran-4-acetic acid-3-ethylidene-2-[(6-O-β-D-glucopyranosyl-β-D-glucopyranosyl)oxy]-3,4-dihydro-5-(methoxycarbonyl)methyl ester] | good activity | –
2 | C/C=C1\C(CC(=O)OC[C@H]2O[C@@H](OCCc3ccc(O)cc3)[C@H](O)[C@@H](O)[C@@H]2O)C(C(=O)OC)=CO[C@H]1O[C@@H]1O[C@H](CO)[C@@H](O)[C@H](O)[C@H]1O (stereo partly drawn) [nuzhenide] | – | mild
3 | C/C=C1\[C@H](O[C@@H]2O[C@H](CO)[C@@H](O)[C@H](O)[C@H]2O)OC=C(C(=O)OC)[C@H]1CC(=O)OC [oleoside dimethyl ester] | good activity | –
